In one assay the target is JNK1 (Homo sapiens (Human), UniProt P45983). Kind of assay: In Vitro JNK1 Assay (TR-FRET, phosphorylation of GST-c-Jun). The class given is biochemical. The note with it: 0.2 nM active JNK1 kinase, 26.7 nM GST-c-Jun, 2 μM ATP, 30 min at room temperature. An outline of the steps:
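GST-c-Jun (residues 1-79) phosphorylation by JNK1 in 50 mM HEPES pH 7.0, MgCl2, 1 mM DTT, 0.1 mM Na3VO4, 0.2 mg/mL BSA, 30 min at room temperature. Stopped with EDTA plus anti-phospho-c-Jun antibody and read by TR-FRET 1 hr later. IC50 from percent inhibition over 10 serial dilutions.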

In assay [1] the test system is phospho(Ser63)-c-jun in HK-2 cells. Kind of assay: Cell-Based Assay for JNK Inhibitors (in-cell ELISA, phospho(Ser63)-c-jun after TNFα). The note with it: HK-2 cells (human proximal tubule cells), 60 minutes compound, then 10 ng/mL TNFα for 30 minutes. The method, boiled down:
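HK-2 human proximal tubule cells were seeded at 40,000 cells/well, cultured 24 h, then serum-starved 16–24 h before TNFα stimulation with compound. Phospho(Ser63)-c-jun was quantified by in-cell ELISA on fixed, permeabilised cells, using a rabbit phospho-specific primary (overnight, 4 °C) and an HRP-linked anti-rabbit secondary. Absorbance was read at 450 nm.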

JNK1, sequence (P45983 whole entry, the tested form may be a part): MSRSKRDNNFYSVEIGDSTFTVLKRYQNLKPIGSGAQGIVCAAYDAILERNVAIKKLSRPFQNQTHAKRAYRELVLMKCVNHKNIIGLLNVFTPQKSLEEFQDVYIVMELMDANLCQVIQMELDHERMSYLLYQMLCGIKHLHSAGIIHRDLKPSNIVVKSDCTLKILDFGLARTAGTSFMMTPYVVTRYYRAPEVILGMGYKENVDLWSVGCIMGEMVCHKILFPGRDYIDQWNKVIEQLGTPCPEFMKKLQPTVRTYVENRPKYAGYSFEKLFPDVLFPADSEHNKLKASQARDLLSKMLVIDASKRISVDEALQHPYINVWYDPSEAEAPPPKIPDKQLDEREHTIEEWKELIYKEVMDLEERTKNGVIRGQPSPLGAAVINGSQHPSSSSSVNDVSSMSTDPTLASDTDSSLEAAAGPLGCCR

`COC(=O)c1c(CNC(=O)c2ccc(C(N)=O)cc2)c(=O)c2ccc(Cl)cc2n1-c1ccccc1` [Example I-117, 3-[(4-Carbamoyl-benzoylamino)-methyl]-7-chloro-4-oxo-1-phenyl-1,4-dihydro-quinoline-2-carboxylic acid methyl ester] registered an IC50 against JNK1 of 10 nM. In assay [1], this compound had an EC50 of 3800 nM.
The matching figures for `COC(=O)c1c(CNC(=O)c2ccc(Cl)c(Cl)c2)c(=O)c2ccc(Cl)cc2n1-c1ccccc1` [Example I-144, 7-Chloro-3-[(3,4-dichloro-benzoylamino)-methyl]-4-oxo-1-phenyl-1,4-dihydro-quinoline-2-carboxylic acid methyl ester]: 48 nM and 8800 nM.
In the case of `O=C(NCc1c(-c2ncco2)n(-c2ccccc2)c2cc(Cl)ccc2c1=O)c1ccc2c(c1)OCO2` [Example I-8, Benzo[1,3]dioxole-5-carboxylic acid (7-chloro-2-oxazol-2-yl-4-oxo-1-phenyl-1,4-dihydro-quinolin-3-ylmethyl)-amide], the IC50 against JNK1 was 25 nM. In assay [1], this compound returned an EC50 of 4200 nM.
In the case of `Cn1cc(C(=O)NCc2c(-c3ncco3)n(-c3ccccc3)c3ncccc3c2=O)cn1` [Example I-11, 1-Methyl-1H-pyrazole-4-carboxylic acid (2-oxazol-2-yl-4-oxo-1-phenyl-1,4-dihydro-[1,8]naphthyridin-3-ylmethyl)-amide], half-maximal inhibition against JNK1 (IC50) was put at 47 nM. This compound also came in with an EC50 in assay [1] of 15000 nM.
For `COC(=O)c1c(CNC(=O)c2ccc(S(C)(=O)=O)cc2)c(=O)c2ccc(Cl)cc2n1-c1ccccc1` [Example I-109, 7-chloro-3-[(4-methanesulfonyl-benzoylamino)-methyl]-4-oxo-1-phenyl-1,4-dihydroquin-oline-2-carboxylic acid methyl ester], the IC50 against JNK1 worked out at 4 nM. It took 5700 nM to reach a half-maximal effect in assay [1] (EC50).
On JNK1, `NS(=O)(=O)c1ccc(C(=O)NCc2cn(-c3ccccc3)c3cc(Cl)ccc3c2=O)cc1` [Example I-36, N-(7-Chloro-4-oxo-1-phenyl-1,4-dihydro-quinolin-3-ylmethyl)-4-sulfamoyl-benzamide] gave an IC50 of 55 nM. This compound returned an EC50 in assay [1] of 100000 nM.
In the case of `COc1cc2ncnc(NCc3cn(-c4ccccc4)c4cc(Cl)ccc4c3=O)c2cc1OC` [Example I-171, 7-Chloro-3-[(6,7-dimethoxy-quinazolin-4-ylamino)-methyl]-1-phenyl-1H-quinolin-4-one], it took 23 nM to reach half-maximal inhibition against JNK1 (IC50). Further, the EC50 in assay [1] turned out to be 88000 nM.
On JNK1, `O=C(NCc1cn(-c2ccccc2)c2cc(Cl)ccc2c1=O)c1ccc(-c2ncn[nH]2)cc1` [Example I-43, N-(7-Chloro-4-oxo-1-phenyl-1,4-dihydro-quinolin-3-ylmethyl)-4-(2H-[1,2,4]triazol-3-yl)-benzamide] came in with a half-maximal inhibitory concentration (IC50) of 100 nM. This compound also displayed an EC50 in assay [1] of 100000 nM.
Take `CN(C)C(=O)c1c(CNC(=O)c2cnc(N3CCC(CCO)CC3)s2)c(=O)c2ccc(Cl)cc2n1-c1ccccc1` [Example I-27, 7-Chloro-3-[4({2-[4-(2-hydroxy-ethyl)-piperidin-1-yl]-thiazole-5-carbonyl}-amino)-methyl]-4-oxo-1-phenyl-1,4-dihydro-quinoline-2-carboxylic acid dimethylamide]: on JNK1, the IC50 was determined as 82 nM. The compound further came in with an EC50 in assay [1] of 8000 nM.
On JNK1, `CC(C)(C)OC(=O)NC1CCN(c2ccc(C(=O)NCc3cn(-c4ccccc4)c4cc(Cl)ccc4c3=O)cn2)CC1` [Example I-81, {5′-[(7-Chloro-4-oxo-1-phenyl-1,4-dihydro-quinolin-3-ylmethyl)-carbamoyl]-3,4,5,6-tetrahydro-2H-[1,2]bipyridinyl-4-yl}-carbamic acid tert-butyl ester] showed an IC50 of 65 nM. In addition, the EC50 in assay [1] came to 100000 nM.
As for `O=C(NCc1cn(-c2ccccc2)c2cc(Cl)ccc2c1=O)c1ccn(Cc2ccccc2Cl)c(=O)c1` [Example I-39, 1-(2-Chloro-benzyl)-2-oxo-1,2-dihydro-pyridine-4-carboxylic acid (7-chloro-4-oxo-1-phenyl-1,4-dihydro-quinolin-3-ylmethyl)-amide], it took 76 nM to reach half-maximal inhibition against JNK1 (IC50). Besides, the concentration for a half-maximal effect (EC50) in assay [1] stood at 10000 nM.
For the compound `COC(=O)c1c(CNC(=O)c2cccc(Cl)c2)c(=O)c2ccc(Cl)cc2n1-c1ccccc1` [Example I-142, 7-Chloro-3-[(3-chloro-benzoylamino)-methyl]-4-oxo-1-phenyl-1,4-dihydro-quinoline-2-carboxylic acid methyl ester], the IC50 against JNK1 was 17 nM. In addition, the half-maximal effective concentration (EC50) in assay [1] came out at 9700 nM.
The compound `O=C(NCc1cn(-c2ccccc2)c2cc(Cl)ccc2c1=O)c1ccc(N2CCC(CCO)CC2)nc1` [Example I-63, 4-(2-Hydroxy-ethyl)-3,4,5,6-tetrahydro-2H-[1,2′]bipyridinyl-5′-carboxylic acid (7-chloro-4-oxo-1-phenyl-1,4-dihydro-quinolin-3-ylmethyl)-amide] came in with an IC50 against JNK1 of 17 nM. Moreover, a half-maximal effect in assay [1] (EC50) was put at 3800 nM.
The like results for `COC(=O)c1c(CNC(=O)c2cccc(Cl)c2)c(=O)c2ccc(OC)cc2n1-c1ccccc1` [Example I-160, 3-[(3-Chloro-benzoylamino)-methyl]-7-methoxy-4-oxo-1-phenyl-1,4-dihydro-quinoline-2-carboxylic acid methyl ester] were, in that order, 26 nM and 22000 nM.
The compound `O=C(NCc1c(-c2ncco2)n(-c2ccccc2)c2cc(Cl)ccc2c1=O)c1ccn(Cc2ccccc2)c(=O)c1` [Example I-1, 1-Benzyl-2-oxo-1,2-dihydro-pyridine-4-carboxylic acid (7-chloro-2-oxazol-2-yl-4-oxo-1-phenyl-1,4-dihydro-quinolin-3-ylmethyl)-amide] had a half-inhibitory concentration (IC50) against JNK1 of 1 nM. The same compound yielded an EC50 in assay [1] of 500 nM.
`COC(=O)c1c(CNC(=O)c2ccc(F)cc2)c(=O)c2ccc(Cl)cc2n1-c1ccccc1` [Example I-140, 7-Chloro-3-[(4-fluoro-benzoylamino)-methyl]-4-oxo-1-phenyl-1,4-dihydro-quinoline-2-carboxylic acid methyl ester] returned an IC50 against JNK1 of 14 nM. In assay [1], this compound had a half-maximal effective concentration (EC50) of 10000 nM.
The like results for `COC(=O)c1c(CNC(=O)c2cnn(Cc3ccccc3)c2)c(=O)c2ccc(Cl)cc2n1-c1ccccc1` [Example I-119, 3-{[(1-Benzyl-1H-pyrazole-4-carbonyl)-amino]-methyl}-7-chloro-4-oxo-1-phenyl-1,4-dihydro-quinoline-2-carboxylic acid methyl ester] were, in that order, 13 nM and 6300 nM.
On JNK1, `COC(=O)c1c(CNC(=O)c2ccc(F)cc2)c(=O)c2ccc(OC)cc2n1-c1ccccc1` [Example I-166, 3-[(4-Fluoro-benzoylamino)-methyl]-7-methoxy-4-oxo-1-phenyl-1,4-dihydro-quinoline-2-carboxylic acid methyl ester] came in with a concentration for half-maximal inhibition (IC50) of 73 nM. The same compound showed an EC50 in assay [1] of 100000 nM.
With `O=C(NCc1cn(-c2ccccc2)c2cc(Cl)ccc2c1=O)c1ccnc(N2CCCC2)c1` [Example I-32, N-(7-Chloro-4-oxo-1-phenyl-1,4-dihydro-quinolin-3-ylmethyl)-2-pyrrolidin-1-yl-isonicotinamide], inhibition at JNK1 was half-maximal at 38 nM (IC50). Also, the half-maximal effective concentration (EC50) in assay [1] came out at 29000 nM.
Take `COC(=O)c1c(CNC(=O)c2ccc(OC)cc2)c(=O)c2ccc(OC)cc2n1-c1ccccc1` [Example I-164, 3-[(4-methoxy-benzoylamino)-methyl]-7-methoxy-4-oxo-1-phenyl-1,4-dihydro-quinoline-2-carboxylic acid methyl ester]: at JNK1, the half-inhibitory concentration (IC50) was 54 nM. For the same compound, a half-maximal response in assay [1] (EC50) required 8900 nM.
As for `COc1ccc(C(=O)NCc2cn(-c3ccccc3)c3cc(Cl)ccc3c2=O)cn1` [Example I-35, N-(7-Chloro-4-oxo-1-phenyl-1,4-dihydro-quinolin-3-ylmethyl)-6-methoxy-nicotinamide], on JNK1, the IC50 turned out to be 54 nM. The compound also had an EC50 in assay [1] of 100000 nM.
The matching figures for `COC(=O)c1c(CNC(=O)c2cccnc2)c(=O)c2ccc(Cl)cc2n1-c1ccccc1` [Example I-139, 7-Chloro-4-oxo-1-phenyl-3-{[(pyridine-3-carbonyl)-amino]-methyl}-1,4-dihydro-quinoline-2-carboxylic acid methyl ester]: 13 nM and 9800 nM.
`O=C(NCc1cn(-c2ccccc2)c2cc(Cl)ccc2c1=O)c1ccn(Cc2ccccc2)c(=O)c1` [Example I-29, 1-Benzyl-2-oxo-1,2-dihydro-pyridine-4-carboxylic acid (7-chloro-4-oxo-1-phenyl-1,4-dihydro-quinolin-3-ylmethyl)-amide] yielded an IC50 at JNK1 of 13 nM. This compound also yielded an EC50 in assay [1] of 5000 nM.
On to `COC(=O)c1c(CNC(=O)c2ccc(F)c(Cl)c2)c(=O)c2ccc(Cl)cc2n1-c1ccccc1` [Example I-141, 7-Chloro-3-[(3-chloro-4-fluoro-benzoylamino)-methyl]-4-oxo-1-phenyl-1,4-dihydro-quinoline-2-carboxylic acid methyl ester], for which the IC50 on JNK1 was 15 nM. In addition, the response in assay [1] was half-maximal at 7000 nM (EC50).
As for `COC(=O)c1c(CNC(=O)c2ccc(-c3ncc[nH]3)cc2)c(=O)c2ccc(C(F)(F)F)nc2n1-c1ccccc1` [Example I-153, 3-{[4-(1H-Imidazol-2-yl)-benzoylamino]-methyl}-4-oxo-1-phenyl-7-trifluoromethyl-1,4-dihydro-[1,8]naphthyridine-2-carboxylic acid methyl ester], the IC50 on JNK1 is 23 nM. Moreover, in assay [1], the half-maximal effective concentration (EC50) came to 4600 nM.

Values taken from patent US8501732B2, “Aminomethyl quinolone compounds” (Hoffmann-La Roche Inc., priority 2011, dated 2013).
